# “Also recorded” adds a separate entry of the source.
# Experiments:
# COX-2 = COX-2 protein expression in HeLa cells (immunoblot); assay type: cell-based; conditions: 1 μM Compound 1 + 20 ng/ml TNFα, 24 hours
# Procedure: HeLa cells were plated in a 6-well culture dish (5×10^5 cells/well) with EMEM medium (Lonza) supplemented with 10% heat-inactivated fetal bovine serum (Invitrogen). Two of the wells of the plate were pre-treated with 1 μM of Compound 1 for 30 minutes, at which time one of the wells was exposed to 20 ng/ml TNFα (Preprotech) for 24 hours. The other wells were treated with either 20 ng/ml TNFα or nothing for 24 hours. Following the treatment, whole-cell lysates were generated from the cells by lysis with RIPA buffer supplemented with protease and phosphatase inhibitors (Roche). Immunoblot detection of COX-2 protein was performed using an anti-COX-2 antibody (Cayman). Signal intensity for the COX-2 protein was normalized to that of beta-actin (Santa Cruz) for each sample and plotted graphically as arbitrary intensity units.
# skin wounds = test: Longitudinal full thickness skin incision wound model in C57BL mice; assay type: in vivo
# Description: The effects of Compound 1 on skin wound healing were studied in a mouse longitudinal full thickness skin incision wound model. Upon arrival, animals were identified by ear tags, weighed and left to acclimate for several days before initiation of the experiment. On the day of wounding, mice were weighed and divided into 6 experimental groups with 6 animals per group, in accordance to weight differences stratified randomization. Prior to the surgical procedure, mice were anesthetized with isoflurane and the back of the animals was trimmed. Full thickness longitudinal incisions of 20 mm were performed using a standard scalpel blade on the backs of the animals (parallel to the backbone). […] At this stage, the widest area of the wound was measured to establish a baseline wound width. […] At the end of the experiment, 8 days post wounding, mice were sacrificed, wound widths were measured and biopsies of the wound area were collected and subjected to analysis. […]
# As a part of a daily morphological assessment, photo-documentation was performed using a digital camera FinePix S700. […] When evaluated on the same day as treatment groups, control group wounds appeared larger in size and were covered with thick cracked scabs that exposed a non-healed wound area (observed as reddish and pink areas) both at the edges and in the middle of the wounds. […]
# A549 xenograft tumors = test: A549 lung carcinoma xenograft in SCID mice; assay type: in vivo
# Procedure: The A549 cell line was derived from explant culture of alveolar carcinoma tissue from a person. The cells were grown in Ham's F12-K tissue culture media with 10% fetal calf serum and 1% penicillin/streptomycin. Cells were routinely trypsinized and passaged 1:10. Thirty-two (32) female CB-17 SCID mice (Charles River Labs strain code 236), aged 5 to 6 weeks were used with a mean pre-treatment body weight of 16.3 grams. Mice were divided into four (4) groups of eight (8) prior to the initiation of treatment based on tumor volume. On the day of implantation, cells were washed in PBS, trypsinized and resuspended in complete media to a density of 2×10^7 cells/mL prior to being mixed with an equal volume of Matrigel. This mixture was then inoculated subcutaneously into mice in a volume of 0.1 mL using a 23G needle.
# Animal weights and condition were recorded daily, and tumors were measured on Mondays, Wednesdays and Fridays with micro-calipers, and tumor volume was calculated as (length×width×width)/2.
# Animals with weight loss of more than 20% of their starting weight were euthanized. Mice with weight loss of more than 15% of their starting weight were not treated again until weight loss recovered to less than 5% of their starting weight. Any animals with a tumor volume of more than 1500 mm^3 were euthanized.
# Dosing solutions were prepared fresh on each day of dosing. Compound 2 was supplied as a lyophilized powder containing 69.61% Compound 2 with the balance made up of Pluronic F-68 and PVP K29/32. This was prepared by dissolving the lyophilized powder in sterile water. Cisplatin was dissolved at 5 mg/mL in DMSO and diluted 1:10 in sterile water for injection. All test articles were administered in a volume of 0.1 mL/10 g body weight.
# Statistical differences between treatment groups were determined using Mann-Whitney Rank Sum or ANOVA tests with a critical value of 0.05.
Structure (SMILES),COX-2 protein expression (COX-2),"wound healing, morphological assessment (skin wounds; 4 or 7.5 mg/kg PO every other day, or 1 or 2.5 μM topical daily, Day 5 post-wounding)",incidence of tampering with wounds compared to vehicle treated mice (skin wounds; Compound 1 in PVP/Pluronic F-68 or Compound 1 in water),"tumor growth versus vehicle control group (mean AUC of tumor volume, one-way ANOVA) (A549 xenograft tumors; Compound 2 5 or 10 mg/kg PO, cisplatin 5 mg/kg IP)","mean tumor volume (A549 xenograft tumors; Day 1, 5 mg/kg PO MWF) [mm^3]","mean tumor volume (A549 xenograft tumors; Day 1, 10 mg/kg PO MWF) [mm^3]","mean tumor volume (A549 xenograft tumors; Day 29, 5 mg/kg PO MWF) [mm^3]","mean tumor volume (A549 xenograft tumors; Day 29, 10 mg/kg PO MWF) [mm^3]"
"CC(C)(C)C(=O)NNC(=O)/C=C\n1cnc(-c2cc(C(F)(F)F)cc(C(F)(F)F)c2)n1 [Compound 1, (Z)-3-(3-(3,5-bis(trifluoromethyl)phenyl)-1H-1,2,4-triazol-1-yl)-N′-pivaloylacrylohydrazide]",decreased the amount of COX-2 protein in the presence of TNFα; also recorded: does reduce the amount of TNFα induced expression of COX-2 protein; also recorded: inhibits TNFα-induced COX-2 protein expression,positive effect; also recorded: better wound healing,reduced the incidence of tampering with wounds; also recorded: prevented tampering with wounds,,,,,
"O=C(/C=C\n1cnc(-c2cc(C(F)(F)F)cc(C(F)(F)F)c2)n1)NNC(=O)CN1CCOCC1 [Compound 2, (Z)-3-(3-(3,5-bis(trifluoromethyl)phenyl)-1H-1,2,4-triazol-1-yl)-N′-(2-morpholinoacetyl)acrylohydrazide]",,,,antitumor effect at both 5 mg/kg and 10 mg/kg doses in a dose dependent manner,101,101,1231,686
